Laboratory results: patent US9428507B2, “Compounds for the treatment of malaria” (The Broad Institute, Inc., priority 2013, dated 2016)

Test system: Dd2 strain of P. falciparum
Experiment: Activity against the Dd2 strain of P. falciparum (SYBR Green I, 72-h incubation)
Type: cell-based
Details: Plasmodium falciparum, DD2, 72 h, read-out: EC^50 Dd2
Procedure, shortened: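 SYBR Green I signal (ex 485, em 530 nm) measured growth, read after 24 h dark staining in saponin/Triton lysis buffer. Before that, compound-exposed Dd2 cultures (1% parasitemia, 1.0% hematocrit, 0.125% DMSO) grew 72 h at 37° C in low-oxygen gas. Background control: 20 μM mefloquine.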

| Compound | EC50 [µM] |
| --- | --- |
| COc1cccc(S(=O)(=O)N2CCC3(CC2)CN[C@H](CO)c2[nH]c4cc(OC)ccc4c23)c1 [Compound 84, (S)-(7′-methoxy-1-((3-methoxyphenyl)sulfonyl)-1′,2′,3′,9′-tetrahydrospiro [piperidine-4,4′-pyrido[3,4-b]indol]-1′-yl)methanol] | 2.53 |
| COc1ccc2c3c([nH]c2c1)[C@H](CO)N(C(=O)c1ccccc1)CC31CCN(C(=O)Nc2ccccc2F)CC1 [Compound 50, (R)-2′-benzoyl-N-(2-fluorophenyl)-1′-(hydroxymethyl)-7′-methoxy-1′,2′,3′,9′-tetrahydrospiro[piperidine-4,4′-pyrido[3,4-b]indole]-1-carboxamide] | 1.24 to 2.25 |
| COc1ccc2c3c([nH]c2c1)[C@H](CO)N(C(=O)Cc1ccccc1)CC31CCN(C(=O)Nc2ccccc2F)CC1 [Compound 105, (R)-N-(2-fluorophenyl)-1′-(hydroxymethyl)-7′-methoxy-2′-(2-phenylacetyl)-1′,2′,3′,9′-tetrahydrospiro [piperidine-4,4′-pyrido[3,4-b]indole]-1-carboxamide] | 0.269 |
| COc1ccc2c3c(n(C)c2c1)[C@H](CO)NCC31CCN(CC2CCCC2)CC1 [Compound 91, (R)-(1-(cyclopentylmethyl)-7′-methoxy-9′-methyl-1′,2′,3′,9′-tetrahydrospiro[piperidine-4,4′-pyrido[3,4-b]indol]-1′-yl)methanol] | 0.481 |
| COc1ccc2c3c([nH]c2c1)[C@H](CO)N(C(C)=O)CC31CCN(C(=O)Nc2cccc(Cl)c2)CC1 [Compound 13, (R)-2′-acetyl-N-(3-chlorophenyl)-1′-(hydroxymethyl)-7′-methoxy-1′,2′,3′,9′-tetrahydrospiro [piperidine-4,4′-pyrido[3,4-b]indole]-1-carboxamide] | 0.127 to 0.162 |
| COc1ccc2c3c([nH]c2c1)[C@H](CO[Si](C)(C)C(C)(C)C)N(C(C)=O)CC31CCNCC1 [Compound 25, (R)-1-(1′-(((tert-butyldimethylsilyl)oxy)methyl)-7′-methoxyspiro[piperidine-4,4′-pyrido[3,4-b]indol]-2′(1′H,3′H,9′H)-yl)ethanone] | 1.62 |
| CCCC(=O)N1CC2(C1)CN(S(=O)(=O)c1ccc(C)cc1)[C@@H](CO)c1[nH]c3cc(OC)ccc3c12 [Compound 120, (R)-1-(1′-(hydroxymethyl)-7′-methoxy-2′-tosyl-1′,2′,3′,9′-tetrahydrospiro[azetidine-3,4′-pyrido[3,4-b]indol]-1-yl)butan-1-one] | 1.65 |
| COCCOCOC[C@H]1c2[nH]c3cc(OC)ccc3c2C2(CCN(C(=O)Nc3ccccc3F)CC2)CN1C(C)=O [Compound 64, (R)-2′-acetyl-N-(2-fluorophenyl)-7′-methoxy-1′-(((2-methoxyethoxy)methoxy)methyl)-1′,2′,3′,9′-tetrahydrospiro[piperidine-4,4′-pyrido[3,4-b]indole]-1-carboxamide] | 3.62 |
| COc1ccc2c3c([nH]c2c1)[C@H](CO)N(C(C)=O)CC31CCN(C(=O)Cc2ccccc2F)CC1 [Compound 39] | 0.752 |
| COc1ccc2c3c(n(C)c2c1)[C@@H](CO)N(C(=O)C1CC1)CC31CCN(C(=O)Nc2cccc(F)c2)CC1 [Compound 125, (S)-2′-(cyclopropanecarbonyl)-N-(3-fluorophenyl)-1′-(hydroxymethyl)-7′-methoxy-9′-methyl-1′,2′,3′,9′-tetrahydrospiro [piperidine-4,4′-pyrido[3,4-b]indole]-1-carboxamide] | 0.343 |
| CC(=O)N1CC2(CCN(C(=O)Nc3ccccc3F)CC2)c2c([nH]c3cc(O)ccc23)[C@@H]1CO [Compound 142, (R)-2′-acetyl-N-(2-fluorophenyl)-7′-hydroxy-1′-(hydroxymethyl)-1′,2′,3′,9′-tetrahydrospiro [piperidine-4,4′-pyrido[3,4-b]indole]-1-carboxamide] | 6.04 |
| COc1ccc2c3c([nH]c2c1)[C@H](CO)N(C(C)=O)CC31CCN(c2nc3ccccc3o2)CC1 [Compound 77, (R)-1-(1-(benzo[d]oxazol-2-yl)-1′-(hydroxymethyl)-7′-methoxyspiro [piperidine-4,4′-pyrido[3,4-b]indol]-2′(1′H,3′H,9′H)-yl)ethanone] | 8.5 |
| C=CCOC(=O)N1CC2(CCN(C(=O)Nc3ccccc3F)CC2)c2c([nH]c3cc(OC)ccc23)[C@@H]1CO [Compound 16, (R)-allyl 1-((2-fluorophenyl)carbamoyl)-1′-(hydroxymethyl)-7′-methoxy-3′,9′-dihydrospiro[piperidine-4,4′-pyrido[3,4-b]indole]-2′(1′H)-carboxylate] | 2.41 |
| C=CCOC(=O)N1CC2(CCN(C(=O)OC(C)(C)C)CC2)c2c([nH]c3cc(OC)ccc23)[C@@H]1CO[Si](C)(C)C(C)(C)C [Compound 18, (R)-2′-allyl 1-tert-butyl 1′-(((tert-butyldimethylsilyl)oxy)methyl)-7′-methoxy-3′,9′-dihydrospiro[piperidine-4,4′-pyrido[3,4-b]indole]-1,2′(1′H)-dicarboxylate] | 0.763 |
| COc1ccc2c3c(n(C)c2c1)[C@H](CO)N(C(=O)Nc1ccc(F)cc1)CC31CN(C(=O)c2ccc3c(c2)OCO3)C1 [Compound 123, (R)-1-(benzo[d] [1,3]dioxole-5-carbonyl)-N-(4-fluorophenyl)-1′-(hydroxymethyl)-7′-methoxy-9′-methyl-3′,9′-dihydrospiro [azetidine-3,4′-pyrido[3,4-b]indole]-2′(1′H)-carboxamide] | 0.683 |
| CCC(=O)N1CCC2(CC1)CN(Cc1cccc(OC)c1)[C@@H](CO)c1[nH]c3cc(OC)ccc3c12 [Compound 107, (R)-1-(1′-(hydroxymethyl)-7′-methoxy-2′-(3-methoxybenzyl)-1′,2′,3′,9′-tetrahydrospiro [piperidine-4,4′-pyrido[3,4-b]indol]-1-yl)propan-1-one] | 2.21 |
| COc1ccc2c3c([nH]c2c1)[C@H](CO)N(C(C)=O)CC31CCN(C(=O)Nc2cc(F)ccc2F)CC1 [Compound 55, (R)-2′-acetyl-N-(2,5-difluorophenyl)-1′-(hydroxymethyl)-7′-methoxy-1′,2′,3′,9′-tetrahydrospiro [piperidine-4,4′-pyrido[3,4-b]indole]-1-carboxamide] | 0.321 to 0.719 |
| COc1ccc2c3c([nH]c2c1)[C@H](CO)N(Cc1cccc(F)c1)CC31CCN(Cc2ccccn2)CC1 [Compound 78, (R)-(2′-(3-fluorobenzyl)-7′-methoxy-1-(pyridin-2-ylmethyl)-1′,2′,3′,9′-tetrahydrospiro [piperidine-4,4′-pyrido[3,4-b]indol]-1′-yl)methanol] | 0.905 |
| CC(=O)N1CC2(CCN(C(=O)Nc3ccccc3F)CC2)c2c([nH]c3cc(OC(C)C)ccc23)[C@@H]1CO [Compound 141, (R)-2′-acetyl-N-(2-fluorophenyl)-1′-(hydroxymethyl)-7′-isopropoxy-1′,2′,3′,9′-tetrahydrospiro [piperidine-4,4′-pyrido[3,4-b]indole]-1-carboxamide] | 6.71 |
| COc1ccc2c3c([nH]c2c1)[C@H](CO)N(S(=O)(=O)c1ccccc1)CC31CCN(C(=O)Nc2ccccc2F)CC1 [Compound 147, (R)-N-(2-fluorophenyl)-1′-(hydroxymethyl)-7′-methoxy-2′-(phenylsulfonyl)-1′,2′,3′,9′-tetrahydrospiro [piperidine-4,4′-pyrido+[,4-b]indole]-1-carboxamide] | 0.391 |
| COc1ccc2c3c([nH]c2c1)[C@H](CN(C)C)N(C(C)=O)CC31CCN(C(=O)Nc2ccccc2F)CC1 [Compound 32, (S)-2′-acetyl-1′-((dimethylamino)methyl)-N-(2-fluoropheny1)-7′-methoxy-1′,2′,3′,9′-tetrahydrospiro[piperidine-4,4′-pyrido[3,4-b]indole]-1-carboxamide] | 0.485 |
| COc1ccc2c3c([nH]c2c1)[C@H](CO)N(C(C)=O)CC31CCN(C(=O)Nc2cccc(F)c2)CC1 [Compound 37, (R)-2′-acetyl-N-(3-fluorophenyl)-1′-(hydroxymethyl)-7′-methoxy-1′,2′,3′,9′-tetrahydrospiro[piperidine-4,4′-pyrido[3,4-b]indole]-1-carboxamide] | 0.577 |
| COc1ccc2c3c([nH]c2c1)[C@H](CN1CCOCC1)N(C(C)=O)CC31CCN(C(=O)OC(C)(C)C)CC1 [Compound 46, (S)-tert-butyl 2′-acetyl-7′-methoxy-1′-(morpholinomethyl)-1′,2′,3′,9′-tetrahydrospiro[piperidine-4,4′-pyrido[3,4-b]indole]-1-carboxylate] | 2.43 to 6.33 |
| CCS(=O)(=O)N1CCC2(CC1)CN(S(=O)(=O)c1ccc(C)cc1)[C@@H](CO)c1[nH]c3cc(OC)ccc3c12 [Compound 124, (R)-(1-(ethylsulfony1)-7′-methoxy-2′-tosyl-1′,2′,3′,9′-tetrahydrospiro [piperidine-4,4′-pyrido[3,4-b]indol]-1′-yl)methanol] | 0.88 |
| COc1ccc2c3c([nH]c2c1)[C@H](CO)N(C(=O)C(C)(C)C)CC31CCN(C(=O)Nc2ccccc2F)CC1 [Compound 23, (R)-N-(2-fluorophenyl)-1′-(hydroxymethyl)-7′-methoxy-2'-pivaloyl-1′,2′,3′,9′-tetrahydrospiro[piperidine-4,4′-pyrido[3,4-b]indole]-1-carboxamide] | 2.4 |
| COc1ccc2c3c([nH]c2c1)[C@H](CO)N(C(C)=O)CC31CCN(C(=O)c2ccccc2F)CC1 [Compound 41, (R)-1-(1-(2-fluorobenzoyl)-1′-(hydroxymethyl)-7′-methoxyspiro[piperidine-4,4′-pyrido[3,4-b]indol]-2′(1′H,3′H,9′H)-yl)ethanone] | 17.5 |

Same assay, conditions: read-out: EC^50 Dd2

| Compound | EC50 [µM] |
| --- | --- |
| Mixture of (1R,3′R) and (1R,3′s)-2-acetyl-N-(2- fluorophenyl)-1- (hydroxymethyl)-7- methoxy-1,2,3,9- tetrahydrospiro[pyrido [3,4-b]indole-4,3′- pyrrolidine]-1′- carboxamide compound with (1R,3′S)-2- acetyl-N-(2- fluorophenyl)-1- (hydroxymethyl)-7- methoxy- 1,2,3,9-tetrahydrospiro [pyrido[3,4-b] indole-4,3′-pyrrolidine]- 1′-carboxamide (1:1) [Compound 72] | 16.5 |
